This passage reports TGI and GI50 results from PubChem BioAssay (NCI).

Assay in all cases: growth of human tumour cells (NCI), 48 h
The test system of assay [1] is EKVX NSCLC.
The test system of assay [2] is HT29 colon.
The subject of assay [3] is NCI/ADR-RES ovarian.
Assay [4] deals with OVCAR-8 ovarian.
The test system of assay [5] is RXF 393 renal.
The subject of assay [6] is SF-539 CNS.
In assay [7] the test system is SK-MEL-28 melanoma.
Assay [8] deals with SK-OV-3 ovarian.
For assay [9], the system named is SN12C renal.
The subject of assay [10] is SNB-19 CNS.

“And” between values parts separate entries of the source, which are not always exact repeats. Identical values can stand only once.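 48-hour exposure; five concentrations; linearly interpolated endpoints. At the GI50, growth is halved. The concentration for full growth arrest is given as TGI.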

In the case of `CN(C)CCn1c(=O)c2ccc(NCCNCCO)c3c(=O)c4cc(O)ccc4n(c1=O)c23`, the TGI in [1] is 14.3 µM; in assay [2], 5.2 µM; in assay [3], over 100 µM; in assay [4], 7.47 µM; in [5], 3.73 µM; in assay [6], 1.65 µM. Further, the TGI in [7] is 17 µM; in assay [8], 46.7 µM; in [9], 5.15 µM; in [10] it was 10.8 µM.

In the case of `C/C(=C/CC[C@](C)(OC1OC(CO)C(O)C(O)C1O)[C@H]1CC[C@]2(C)[C@@H]1CC[C@@H]1[C@@]3(C)CC[C@H](O)C(C)(C)[C@@H]3C[C@H](O)[C@]12C)CO` (some centres not stated), the TGI is over 100 µM in assay [1]; 45.1 µM in assay [2]; over 100 µM in assay [3]; over 100 µM in assay [4]; 19.4 µM in assay [5]; 35.6 µM in assay [6]. Moreover, the TGI is 38.5 µM in assay [7], over 100 µM in assay [8], 66.4 µM in assay [9] and 56.5 µM in assay [10].

Turning to `COc1ccccc1OC/C(N=Cc1ccncc1)=N/NC(=O)c1ccncc1`, the TGI in assay [1], in assay [2], in assay [3], in [4], in assay [5] and in assay [6] was over 100 µM each time. In addition, the TGI in assay [7], in assay [8], in [9] and in assay [10] was over 100 µM each time.

For the compound `CC(=O)Oc1ccc2c(c1)c1c(OC(C)=O)c3ccccc3c(OC(C)=O)c1n2Cc1cccc(C)c1`, the TGI in [1] was 57.3 µM; in [2] it was over 100 µM; in assay [3], over 100 µM; in assay [4], over 100 µM; in assay [5] it was over 100 µM; in assay [6], 79.3 µM. Besides, the TGI was over 100 µM in [7], 53.5 µM in [8], over 100 µM in [9] and over 100 µM in assay [10].

Consider `C=C1C(=O)C[C@@]23CCC[C@@]12CC(O)C3` (some centres not stated), for which the TGI is over 73.5 µM in assay [1]; 33.2 µM in assay [2]; 42.8 µM in assay [3]; over 100 µM in assay [4]; 33.8 µM in assay [5]; 61.3 µM in [6]. For the same compound, the TGI in assay [7] was 49.8 µM; in assay [8], 67.5 µM; in assay [9], 38.1 µM; in [10], over 100 µM.

For `COc1cc(O)c2c(c1)C(O)C(O)CC1OC1C(=O)/C=C/CC(C)OC2=O` (configuration not stated), the TGI was 35.8 µM in [1]; 10 µM in [2]; 30.3 µM in assay [3]; 25 µM in assay [4]; 5.6 µM in assay [5]; 17.9 µM in assay [6]. For the same compound, the TGI was 12 µM in [7], over 64.9 µM in assay [8], 11.8 µM in assay [9] and 58.2 µM in assay [10].

Consider `CN1C/C(=C\c2ccccc2[N+](=O)[O-])C(=O)/C(=C/c2ccccc2[N+](=O)[O-])C1`, for which the GI50 in assay [1] is 2.94 µM and 0.554 µM; in assay [2], 0.173 µM and 0.169 µM; in assay [4], 0.175 µM and 0.517 µM; in [5], 0.477 µM and 0.191 µM; in assay [6] it was 0.53 µM and 1.13 µM; in [7], 0.906 µM and 1.83 µM. The GI50 in [9] is 1.98 µM and 0.809 µM. For the same compound, the TGI was 13.1 µM and 11 µM in assay [1]; 0.325 µM and 0.409 µM in [2]; > 28.1 µM and 29.4 µM in assay [3]; 0.328 µM and 1.85 µM in [4]; 1.13 µM and 0.485 µM in assay [5]; 2.3 µM and 3.86 µM in [6]. Besides, the TGI in [7] was 3.15 µM and 4.18 µM; in [8] it was 12.8 µM and 10.8 µM; in assay [9] it was 4.88 µM and 2.22 µM; in assay [10], 16.6 µM and 19.2 µM.

Take `COC(=O)CNC(=O)/C=C/[C@H](O[Si](C)(C)C(C)(C)C)[C@H](/C=C/C(=O)NCC(=O)OC)O[Si](C)(C)C(C)(C)C`: the TGI in assay [1], in assay [2], in assay [3], in [4], in assay [5] and in assay [6] was over 25 µM each time. Moreover, the TGI in assay [7], in assay [8], in assay [9] and in assay [10] was over 25 µM throughout.

As to `C/C(=N\O)c1ccc(Nc2c3ccccc3nc3occc23)cc1`, the TGI is over 50 µM in [1]; 0.72 µM in [2]; 0.484 µM in assay [3]; 7.34 µM in [4]; 0.614 µM in assay [5]; 0.732 µM in [6]. The TGI in [7] was over 18.5 µM; in assay [8], 5.92 µM; in assay [9] it was over 50 µM; in assay [10], over 50 µM.

Turning to `CC(C)[Si]1(C(C)C)OCC2OC(n3cnc4c(N)ncnc43)C(N)C2O[Si](C(C)C)(C(C)C)O1` (configuration not stated), the TGI in [1] is over 66.9 µM; in [2], 26.9 µM; in assay [3] it was 20.7 µM; in assay [4], 25.1 µM; in assay [5], 27.1 µM; in assay [6], 24.4 µM. For the same compound, the TGI in assay [7] is over 72.1 µM; in assay [8], over 53.7 µM; in assay [9], 27.9 µM; in assay [10], 97.5 µM.

For `COc1ccc(C=O)cc1Oc1ccc(C[C@H]2c3c(cc(OC)c4c3Oc3cc5c(cc3O4)CCN(C)C5=O)CCN2C)cc1`, the TGI in assay [1] came out at 22.3 µM; in assay [2] it was 14.4 µM; in [3] it was 16.2 µM; in assay [4], 15.2 µM; in assay [5] it was 10.8 µM; in [6], 18.3 µM. The TGI in [7] is 22.7 µM; in assay [8], 17.5 µM; in assay [9] it was 43 µM; in assay [10] it was 30.2 µM.

For the compound `CCCCC(=C=C1CCCCC1O)C1CCCN1C(=O)OC(C)(C)C` (configuration not stated), the TGI was 28.4 µM in assay [1]; 27.3 µM in assay [2]; 30.6 µM in assay [3]; 34.6 µM in assay [4]; 27.1 µM in assay [5]; 35.5 µM in assay [6]. Moreover, the TGI in assay [7] was found to be 29.6 µM; in assay [8] it was 31.2 µM; in assay [9], 31.7 µM; in assay [10], 31.1 µM.
